What was measured:
[1] = tested on: carrageenan-induced rat paw edema; test: carrageenan-induced rat paw edema method (anti-inflammatory activity); format: in vivo; conditions: for anti-inflammatory activity (in words): compared with standard drug indomethacin; for anti-inflammatory activity, % inhibition of paw edema: equimolar oral dose, rat
Protocol: For the experimental results described below, healthy male albino rats (200 g-220 g) were used for the study. The animals were kept in standard plastic animal cages in groups of six animals each with 12 hour light and dark cycle at 25±2° C. The rats were fed on standard rat chow and provided water ad libitum. The animals were acclimatized to laboratory conditions for a week prior to experiments. Anti-inflammatory activity of the synthesized compounds S1-S18 was determined by the carrageenan-induced rat paw edema method. The compounds were tested at equimolar oral dose and were compared with the standard drug indomethacin. […]. Three compounds, namely S14, S7 and S3 containing R=2,4,5-trimethoxyphenyl; […].
Anti-inflammatory activity was determined by a carrageenan-induced rat paw edema method. Male rats weighing 200 g were housed in a room with a controlled temperature and 12 hour light/12 hour dark cycle, housed in a specific pathogen free environment, and fed standard rodent chow and given water ad libitum. Each treatment group and vehicle group consisted of six randomly assigned animals. Compounds were administered p.o. suspension. Paw edema was induced by intradermal injection of 50 μL of 1% carrageenan into the sub plantar region of the right hind paw, after one hour of compound administration. […] The control group received only the vehicle. Increase in paw edema was compared with that in the control group and percent inhibition was calculated taking the values in the control group as 0% inhibition.

[2] = tested on: nociceptive response on hot plate; test: hot plate test (analgesic activity); format: in vivo; design: concentration or dose not given beside the values; conditions: hot plate 58° C.; mice; 120 min after injection
Protocol: Male albino Swiss mice (25 g body weight) were divided into various groups (n=6). Each mouse was initially placed on a hot plate thermostatically maintained at 58° C. […] This time was considered as the control reaction time. A cut-off time of 60 s was used to avoid damage to the paws. To test the analgesic activity of the compounds, each group of mice was treated with one dose of the test compounds. The reaction time was then retested at 0 hour and 120 min after injection (each animal acted as its own control). The percentage changes in the reaction were then calculated.

gastric mucosa = conditions: rat, in vivo
Protocol: For acute ulcerogenesis testing, albino rats were divided into different groups consisting of six animals in each group. […] Control rats received p.o. administration of vehicle (suspension of 1% methyl cellulose). Food (but not water) was removed 24 hours before administration of the test compounds. After the drug treatment, the rats were fed a normal diet for 17 hours and then sacrificed. The stomach was removed and opened along the greater curvature, washed with distilled water and cleaned gently by dipping in saline. The mucosal damage was examined by means of a magnifying glass. For each stomach, the mucosal damage was assessed according to the following scoring system: 0.5 redness; 1.0 spot ulcers; 1.5 hemorrhagic streaks; 2.0 ulcers <3 but ≦5; 3.0 ulcers >5. All of the compounds were tested at equimolar oral doses.

[3] = tested on: ethanol-induced gastric ulcer; test: ethanol induced ulcer model (gastro-protective activity: ulcer index, mucus, PAS staining, histology); format: in vivo, rat; conditions: for Ulcer index Mean ± SEM: pretreatment orally (S3 25.6 mg/kg, indomethacin 25 mg/kg) 1 hour before ethanol 95% 20 mL/kg, rats
Description: Gastric mucus plays crucial role in gastro-protection. […] The mucus was formed from mucin-type glycoprotein. The mucus gel adhering to the gastric mucosal surface defends the epithelium beneath against acid, pepsin and necrotizing agents, such as ethanol and indomethacin. […] Gastric wall mucus coating might be relieved in the repair of the damaged gastric epithelium. […] The rats were grouped into five groups (n=6). Group I and II received saline solution and served as negative-control and ulcer-control, respectively. […] The animals were sacrificed 1 hour later under anesthesia and their stomachs were quickly removed for further studies. Periodic acid-Schiff (PAS) staining was used to observe the glycogen level in control and pretreated animals. […] Ethanol-induced gastric ulcers result from several mechanisms, including reduction of gastric mucus and impaired mucosal permeability, and leads to increased leakage of hydrogen ions from the lumen and decreased transluminal membrane potential difference. With regard to the gross gastric lesion evaluation, the stomach of each rat was opened along the greater arc and washed with saline water to remove gastric contents. Gastric ulcers appear as elongated bands on the gastric mucosa with hemorrhagic lesions being parallel to the long axis of the stomach. The mucosa was assessed for damage under dissecting microscope (1.8×) and a planimeter was used to measure the ulcers area (hemorrhagic lesions). The length and width of each lesion were measured and the sum of the area of all lesions for each stomach was expressed as the ulcer area (mm^2). To determine mucus production of the gastric mucosa, the gastric mucosa of each rat was gently scraped using a glass slide and the mucus obtained was weighed using a precision electronic balance. For the histologic studies, gastric tissues were collected and fixed in 10% formalin after sacrifice. Then, each sample was embedded in paraffin and cut into 5 μm thick slices for morphological and pathological evaluation. Tissue sections were stained with hematoxylin and eosin (H & E) and examined under a light microscope.

COX-1 = test: Western blot of COX-1 expression in rat gastric mucosa damaged by ethanol; format: in vivo; conditions: ethanol induced model, S3 25.6 mg/kg, indomethacin 25 mg/kg

Row | SMILES | melting point | analgesic activity (percentage change in reaction time) [2] | also measured
1 | COc1ccc2[nH]c(C)c(CC(=O)N/N=C/c3ccccc3[N+](=O)[O-])c2c1 [Compound S4, 2-(5-methoxy-2-methyl-1H-indol-3-yl)-N′-[(E)-(2-nitrophenyl)methylidene] acetohydrazide] | 210 to 212 °C | – | –
2 | COc1ccc2[nH]c(C)c(CC(=O)N/N=C/c3ccc(Cl)cc3)c2c1 [Compound S5, N′-[(E)-(4-chlorophenyl)methylidene]-2-(5-methoxy-2-methyl-1H-indol-3-yl)acetohydrazide] | 180 to 182 °C | – | –
3 | COc1ccc2[nH]c(C)c(CC(=O)N/N=C/c3ccc(Cl)cc3Cl)c2c1 [Compound S6, N′-[(E)-(2,4-dichlorophenyl)methylidene]-2-(5-methoxy-2-methyl-1H-indol-3-yl)acetohydrazide] | 238 to 240 °C | – | –
4 | COc1ccc2[nH]c(C)c(CC(=O)N/N=C/c3ccc(OC)c(OC)c3)c2c1 [Compound S7, 2-(5-methoxy-2-methyl-1H-indol-3-yl)-N′-[(E)-(3,4-dimethoxyphenyl)methylidene] acetohydrazide] | 210 to 212 °C | 47.72% | anti-inflammatory activity (in words) [1]: most potent compounds with significant anti-inflammatory activity; ulcerogenic activity (in words) (gastric mucosa): less ulcerogenic than the reference drug indomethacin
5 | COc1ccc2[nH]c(C)c(CC(=O)N/N=C/c3ccccc3OC)c2c1 [Compound S8, 2-(5-methoxy-2-methyl-1H-indol-3-yl)-N′-[(E)-(2-methoxyphenyl)methylidene] acetohydrazide] | 220 to 222 °C | – | –
6 | COc1ccc2[nH]c(C)c(CC(=O)N/N=C/c3ccc(O)cc3)c2c1 [Compound S9, N-[(E)-(4-hydroxyphenyl)methylidene]-2-(5-methoxy-2-methyl-1H-indol-3-yl)acetohydrazide] | – | 55.81% | –
7 | COc1ccc2[nH]c(C)c(CC(=O)N/N=C/c3cccc(O)c3)c2c1 [Compound S10, N′-[(E)-(3-hydroxyphenyl)methylidene]-2-(5-methoxy-2-methyl-1H-indol-3-yl)acetohydrazide] | 145 to 147 °C | 62.50% | –
8 | COc1ccc2[nH]c(C)c(CC(=O)N/N=C/c3ccc(N(C)C)cc3)c2c1 [Compound S11, 2-(5-methoxy-2-methyl-1H-indol-3-yl)-N′-{(E)-[4-(dimethylamino)phenyl]methylidene}acetohydrazide] | 200 to 202 °C | – | –
9 | COc1cccc(/C=N/NC(=O)Cc2c(C)[nH]c3ccc(OC)cc23)c1 [Compound S12, 2-(5-methoxy-2-methyl-1H-indol-3-yl)-N′-[(E)-(3-methoxyphenyl)methylidene] acetohydrazide] | 195 to 197 °C | – | –
10 | CCOc1ccc(/C=N/NC(=O)Cc2c(C)[nH]c3ccc(OC)cc23)cc1 [Compound S13, N′-[(E)-(4-ethoxyphenyl)methylidene]-2-(5-methoxy-2-methyl-1H-indol-3-yl)acetohydrazide] | 213 to 215 °C | – | –
11 | COc1ccc2[nH]c(C)c(CC(=O)N/N=C/c3cc(OC)c(OC)cc3OC)c2c1 [Compound S14, 2-(5-methoxy-2-methyl-1H-indol-3-yl)-N′-[(E)-(2,4,5-trimethoxyphenyl)methylidene]acetohydrazide] | 238 to 240 °C | 70.27% | anti-inflammatory activity (in words) [1]: most potent compounds with significant anti-inflammatory activity; ulcerogenic activity (in words) (gastric mucosa): less ulcerogenic than the reference drug indomethacin
12 | COc1ccc2[nH]c(C)c(CC(=O)N/N=C/c3ccc(OC)c(OC)c3OC)c2c1 [Compound S15, 2-(5-methoxy-2-methyl-1H-indol-3-yl)-N′-[(E)-(2,3,4-trimethoxyphenyl)methylidene]acetohydrazide] | 250 to 252 °C | – | –
13 | COc1ccc2[nH]c(C)c(CC(=O)N/N=C/c3cc(OC)c(OC)c(OC)c3)c2c1 [Compound S16, 2-(5-methoxy-2-methyl-1H-indol-3-yl)-N′-[(E)-(3,4,5-trimethoxyphenyl)methylidene]acetohydrazide] | 233 to 235 °C | – | –
14 | COc1cc(OC)c(/C=N/NC(=O)Cc2c(C)[nH]c3ccc(OC)cc23)c(OC)c1 [Compound S17, 2-(5-methoxy-2-methyl-1H-indol-3-yl)-N′-[(E)-(2,4,6-trimethoxyphenyl)methylidene]acetohydrazide] | 230 to 232 °C | 61.53% | –
15 | COc1ccc(/C=N/NC(=O)Cc2c(C)[nH]c3ccc(OC)cc23)c(OC)c1 [Compound S18, 2-(5-methoxy-2-methyl-1H-indol-3-yl)-N′-[(E)-(2,4-dimethoxyphenyl)methylidene]acetohydrazide] | 170 to 172 °C | – | –
16 | COc1ccc2c(c1)c(CC(=O)O)c(C)n2C(=O)c1ccc(Cl)cc1 [indomethacin, reference compound] | – | – | anti-inflammatory activity, % inhibition of paw edema ([1]; after 2 hours): 77.23%; anti-inflammatory activity, % inhibition of paw edema ([1]; after 4 hours): 76.89%; histology of gastric tissue (in words) ([3]; S3 25.6 mg/kg, indomethacin 25 mg/kg, ethanol induced ulcer): severe ulceration in comparison with the ethanol induced ulceration; PAS staining of gastric mucosa (in words) ([3]; pretreated rats, ethanol induced ulcer): did not exhibit this magenta staining color of PAS; Ulcer index Mean ± SEM [3]: 12.34±0.73 mm^2; Ulcer index Mean ± SEM ([3]; listed as Indomethacin): 12.34 ± 0.73 mm^2; COX-1 expression / inhibition by Western blot (in words) (COX-1): potent COX-1 inhibitor

Source: US9808443B1, “Cyclooxygenase inhibitors” (KING SAUD UNIVERSITY, priority 2016, dated 2017)
